ΔTm data for five molecules are collected here from PMC3145970, “Specific CLK Inhibitors from a Novel Chemotype for Regulation of Alternative Splicing” (Chemistry & Biology, 2011).

Holding throughout (assay): Thermal stability shift assay
What all share (type): binding

One test has as its target T1, CLK1 (Homo sapiens, UniProt P49759).
T1 construct: the kinase domains of human CLK1 (residues: 148–484 (C terminus)); hexahistidine tag (TEV-cleavable) (cleaved yes); made in house; host or cells: E. coli BL21(DE3)
To be noted: inhibitor 10 μM; read-out: Tm shift CLK1. The protocol:
(§1) Thermal denaturation experiments were carried out in an Mx3005p real-time PCR machine (Agilent) using a protein concentration of 2 μM and an inhibitor concentration of 10 μM. Samples were buffered in 10 mM HEPES (pH 7.5), 500 mM NaCl and a 1:1000 dilution of SyproOrange (Invitrogen).

The target of another test is CDK2 (Homo sapiens, UniProt P24941). The following applies: read-out: Tm shift CDK2. The protocol: as §1
In the next test the target is T2, DYRK2 (Homo sapiens, UniProt Q92630).
T2 construct: purchased in-house (SGC Oxford thermal shift panel)
T2 sequence (Q92630 1-601): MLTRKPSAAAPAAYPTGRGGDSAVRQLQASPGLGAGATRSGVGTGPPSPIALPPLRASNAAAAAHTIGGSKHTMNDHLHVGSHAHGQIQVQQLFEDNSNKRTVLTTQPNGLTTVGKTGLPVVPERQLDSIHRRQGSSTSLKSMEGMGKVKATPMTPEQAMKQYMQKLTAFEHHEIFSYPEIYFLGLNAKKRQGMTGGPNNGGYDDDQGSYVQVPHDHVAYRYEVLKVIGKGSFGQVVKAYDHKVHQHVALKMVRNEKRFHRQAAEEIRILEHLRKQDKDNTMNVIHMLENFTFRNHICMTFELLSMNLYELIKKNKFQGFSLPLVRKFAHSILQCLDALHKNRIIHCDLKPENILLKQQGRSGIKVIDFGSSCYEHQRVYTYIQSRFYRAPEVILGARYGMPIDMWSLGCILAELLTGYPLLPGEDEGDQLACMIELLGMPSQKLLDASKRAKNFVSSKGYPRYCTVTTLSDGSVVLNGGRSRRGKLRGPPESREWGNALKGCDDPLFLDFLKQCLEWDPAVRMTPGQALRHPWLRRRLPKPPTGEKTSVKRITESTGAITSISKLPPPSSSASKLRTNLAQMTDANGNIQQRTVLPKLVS
The following applies: inhibitor 10 μM; read-out: Tm shift DYRK2. On the procedure: as §1

Another test deals with T3, CLK3 (Homo sapiens, UniProt P49761).
T3 construct: purchased in-house (SGC Oxford thermal shift panel)
T3 sequence (P49761 whole entry): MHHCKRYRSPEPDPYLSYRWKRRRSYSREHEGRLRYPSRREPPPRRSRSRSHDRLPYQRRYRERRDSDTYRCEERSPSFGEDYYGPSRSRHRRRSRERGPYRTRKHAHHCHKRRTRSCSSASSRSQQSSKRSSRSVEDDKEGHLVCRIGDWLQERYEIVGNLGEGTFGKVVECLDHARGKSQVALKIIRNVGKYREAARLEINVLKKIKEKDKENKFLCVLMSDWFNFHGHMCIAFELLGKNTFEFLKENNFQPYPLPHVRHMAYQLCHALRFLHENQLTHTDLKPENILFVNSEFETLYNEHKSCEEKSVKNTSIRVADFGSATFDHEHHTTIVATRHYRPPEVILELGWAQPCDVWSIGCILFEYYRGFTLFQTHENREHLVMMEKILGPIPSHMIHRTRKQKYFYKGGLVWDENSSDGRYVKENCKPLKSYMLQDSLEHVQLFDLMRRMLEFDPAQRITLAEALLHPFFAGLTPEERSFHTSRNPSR
The following applies: inhibitor 10 μM; read-out: Tm shift CLK3. The protocol: as §1

The target of another test is PIM1 (Homo sapiens, UniProt P11309). To be noted: read-out: Tm shift PIM1. On the procedure:
as §1

The target of another test is T4, DYRK1A (Homo sapiens, UniProt Q13627).
T4 construct: purchased in-house (SGC Oxford thermal shift panel)
The following applies: inhibitor 10 μM; read-out: Tm shift DYRK1A. The protocol: as §1

The target of the next test is T5, Erk1 (Homo sapiens, UniProt P27361).
T5 construct: purchased in-house (SGC Oxford thermal shift panel)
T5 sequence (P27361 whole entry): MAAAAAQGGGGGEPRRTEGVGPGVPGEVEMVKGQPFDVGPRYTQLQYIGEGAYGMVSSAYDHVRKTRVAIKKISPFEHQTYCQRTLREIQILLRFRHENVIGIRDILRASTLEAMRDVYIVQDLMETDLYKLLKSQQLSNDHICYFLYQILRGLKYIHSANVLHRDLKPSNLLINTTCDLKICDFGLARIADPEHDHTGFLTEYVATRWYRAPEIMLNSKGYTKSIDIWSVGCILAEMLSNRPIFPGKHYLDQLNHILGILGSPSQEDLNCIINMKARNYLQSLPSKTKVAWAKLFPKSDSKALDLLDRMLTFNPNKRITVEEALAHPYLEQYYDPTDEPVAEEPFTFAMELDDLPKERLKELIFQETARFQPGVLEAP
To be noted: read-out: Tm shift Erk1. The protocol:
as §1

Another test deals with T6, eEF2K (Homo sapiens, UniProt O00418).
T6 construct: purchased in-house (SGC Oxford thermal shift panel)
T6 sequence (O00418 1-725): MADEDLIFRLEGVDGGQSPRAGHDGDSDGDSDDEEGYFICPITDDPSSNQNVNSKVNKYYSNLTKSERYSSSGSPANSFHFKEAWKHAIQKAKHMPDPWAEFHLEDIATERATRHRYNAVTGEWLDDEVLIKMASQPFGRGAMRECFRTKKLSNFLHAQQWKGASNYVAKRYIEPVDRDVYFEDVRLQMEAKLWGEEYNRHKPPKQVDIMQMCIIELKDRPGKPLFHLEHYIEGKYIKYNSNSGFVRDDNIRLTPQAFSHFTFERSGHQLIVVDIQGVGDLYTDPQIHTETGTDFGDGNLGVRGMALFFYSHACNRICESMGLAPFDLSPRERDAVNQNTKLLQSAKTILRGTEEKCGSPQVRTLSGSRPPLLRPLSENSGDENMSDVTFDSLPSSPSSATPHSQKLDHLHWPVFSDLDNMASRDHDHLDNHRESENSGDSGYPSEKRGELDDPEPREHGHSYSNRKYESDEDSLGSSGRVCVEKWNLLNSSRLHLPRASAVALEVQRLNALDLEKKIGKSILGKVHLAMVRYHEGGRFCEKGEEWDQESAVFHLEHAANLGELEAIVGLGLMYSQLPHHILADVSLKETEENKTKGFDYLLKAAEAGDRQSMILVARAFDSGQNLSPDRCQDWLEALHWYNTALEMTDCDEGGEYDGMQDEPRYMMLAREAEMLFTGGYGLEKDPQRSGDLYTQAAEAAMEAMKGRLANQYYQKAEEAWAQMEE
The following applies: read-out: Tm shift eEF2K. An outline of the steps: (§2)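 DSF read-out: SyproOrange fluorescence (1:1000) during thermal unfolding of 2 μM kinase with 10 μM compound. Buffer 10 mM HEPES pH 7.5, 500 mM NaCl; run on a real-time PCR machine.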

In the next test the target is T7, Haspin (Homo sapiens, UniProt Q8TF76).
T7 construct: purchased in-house (SGC Oxford thermal shift panel)
T7 sequence (Q8TF76 1-798): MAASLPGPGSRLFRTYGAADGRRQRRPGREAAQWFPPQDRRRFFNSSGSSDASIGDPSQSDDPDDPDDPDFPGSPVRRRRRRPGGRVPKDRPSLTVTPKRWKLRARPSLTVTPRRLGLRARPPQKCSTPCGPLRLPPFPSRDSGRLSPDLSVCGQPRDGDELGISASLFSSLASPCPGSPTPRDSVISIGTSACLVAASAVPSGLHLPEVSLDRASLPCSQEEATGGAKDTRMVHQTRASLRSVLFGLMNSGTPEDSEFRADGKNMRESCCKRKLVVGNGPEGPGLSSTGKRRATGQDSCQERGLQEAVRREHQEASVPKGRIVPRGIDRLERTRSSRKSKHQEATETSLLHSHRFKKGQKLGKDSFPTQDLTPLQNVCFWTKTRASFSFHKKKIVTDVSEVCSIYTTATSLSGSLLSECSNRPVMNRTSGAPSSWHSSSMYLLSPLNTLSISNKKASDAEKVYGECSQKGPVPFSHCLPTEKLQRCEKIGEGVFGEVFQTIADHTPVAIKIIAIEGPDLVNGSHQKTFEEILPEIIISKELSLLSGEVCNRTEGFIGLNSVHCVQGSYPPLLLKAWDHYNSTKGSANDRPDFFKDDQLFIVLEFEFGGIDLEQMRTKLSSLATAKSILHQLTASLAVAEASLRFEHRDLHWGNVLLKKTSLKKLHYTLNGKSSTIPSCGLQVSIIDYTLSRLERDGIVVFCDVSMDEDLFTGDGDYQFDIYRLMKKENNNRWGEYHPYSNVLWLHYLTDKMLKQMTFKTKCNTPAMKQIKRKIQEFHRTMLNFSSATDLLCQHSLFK
The following applies: read-out: Tm shift Haspin. An outline of the steps: as §2

Where two headings read alike, the source gives them in different places.

Chain of PIM1 (P11309 whole entry): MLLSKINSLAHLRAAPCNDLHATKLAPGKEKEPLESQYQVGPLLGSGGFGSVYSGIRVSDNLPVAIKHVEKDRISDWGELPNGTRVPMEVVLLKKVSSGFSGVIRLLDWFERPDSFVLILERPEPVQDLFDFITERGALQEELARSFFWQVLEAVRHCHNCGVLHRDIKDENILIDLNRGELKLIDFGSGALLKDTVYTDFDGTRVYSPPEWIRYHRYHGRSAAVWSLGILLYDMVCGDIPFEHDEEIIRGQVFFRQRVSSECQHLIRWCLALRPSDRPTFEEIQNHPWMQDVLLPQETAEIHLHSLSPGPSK
T1 sequence (P49759 148-484): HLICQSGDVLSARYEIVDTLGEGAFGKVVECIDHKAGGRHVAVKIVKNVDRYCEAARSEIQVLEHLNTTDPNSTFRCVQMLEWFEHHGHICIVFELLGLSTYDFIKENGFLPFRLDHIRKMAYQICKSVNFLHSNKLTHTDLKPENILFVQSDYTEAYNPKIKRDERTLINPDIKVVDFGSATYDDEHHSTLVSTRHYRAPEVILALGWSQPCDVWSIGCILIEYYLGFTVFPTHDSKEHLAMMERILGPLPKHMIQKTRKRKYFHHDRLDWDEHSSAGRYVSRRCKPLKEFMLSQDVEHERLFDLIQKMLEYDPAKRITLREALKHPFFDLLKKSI

Turning to `Cn1c2c(Cl)c(Cl)ccc2c2c(C#N)c[nH]c(=O)c21` [compound 3, 7,8-Dichloro-9-Methyl-1-Oxo-2,9-Dihydro-1H-Pyrido[3,4-b]Indole-4-Carbonitrile], the ΔTm at 10 µM on CLK1 was found to be 10.9 °C; on CDK2 (inhibitor 10 μM), 0.4 °C; at DYRK2, 2.1 °C; at CLK3 it was 7.9 °C; at PIM1 (inhibitor 10 μM), 3.4 °C; at DYRK1A, 5.1 °C. Also, the results for the ΔTm at 10 µM on Erk1 (inhibitor 10 μM), on eEF2K (inhibitor 10 μM) and on Haspin (inhibitor 10 μM) were -0.5 °C, 0.3 °C and 2.1 °C, respectively.
For `CCOC(=O)c1c(C(C#N)=CN)c2ccc(Cl)c(Cl)c2n1C` (mixture of isomers) [KH-CB20, (E/Z)-Ethyl 3-(2-Amino-1-Cyanovinyl)-6,7-Dichloro-1-Methyl-1H-Indole-2-Carboxylate], the ΔTm at 10 µM on CDK2 is 0.2 °C; on PIM1, 3 °C; at Erk1, 0.1 °C; at eEF2K, -0.1 °C; at Haspin it was 1.8 °C.
Consider `NC1=NC(=O)/C(=C2\CCNC(=O)c3[nH]c(Br)cc32)N1` [Hymenialdisine, hymenialdisine, reference compound], for which the ΔTm at 10 µM at CLK1 was determined as 7.8 °C; on CDK2 (inhibitor 10 μM), 1.5 °C; on DYRK2, 0.8 °C; on CLK3, 7.2 °C; at PIM1 (inhibitor 10 μM), 0.6 °C; at DYRK1A, 4.4 °C. Also, the ΔTm at 10 µM on eEF2K (inhibitor 10 μM) was -0.1 °C; at Haspin (inhibitor 10 μM) it was 3.9 °C.
For `CCOC(=O)c1c(/C(C#N)=C\N)c2ccc(Cl)c(Cl)c2n1C` [KH-CB19, (E)-Ethyl 3-(2-Amino-1-Cyanovinyl)-6,7-Dichloro-1-Methyl-1H-Indole-2-Carboxylate], the ΔTm at 10 µM at CDK2 is 0.2 °C; on PIM1 it was 2.9 °C; at Erk1, -0.3 °C; on eEF2K it was -0.1 °C; at Haspin, 2.1 °C.
As to `CCOC(=O)c1c(C(C#N)=CN(C)C)c2ccc(Cl)c(Cl)c2n1C` (mixture of isomers) [compound 2, (E/Z)-Ethyl 6,7-Dichloro-3-[1-Cyano-2-(Dimethylamino)Vinyl]-1-Methyl-1H-Indole-2-Carboxylate], the ΔTm at 10 µM was 5.6 °C on CLK1; -0.1 °C at CDK2 (inhibitor 10 μM); 0.7 °C on DYRK2; 1.7 °C at CLK3; 2.5 °C on PIM1 (inhibitor 10 μM); 0.6 °C on DYRK1A. Further, the ΔTm at 10 µM was 0.1 °C at Erk1 (inhibitor 10 μM), -0.4 °C on eEF2K (inhibitor 10 μM) and 0.2 °C on Haspin (inhibitor 10 μM).
